Results: patent publication US11299501B2 (BRISTOL-MYERS SQUIBB COMPANY, priority 2017, dated 2022)

How the values were obtained:
Assay type in all cases: cell-based
human TLR9 = molecular target: T1, human TLR9 (Homo sapiens, UniProt Q9NR96); test: TLR9 inhibition reporter assay (HEK-Blue SEAP); conditions: cells overexpressing human TLR9, SEAP reporter, stimulated with ODN2006 5 nM, 22 hour incubation
T1 construct: host or cells: HEK-Blue cells
T1 sequence (Q9NR96 26-1032): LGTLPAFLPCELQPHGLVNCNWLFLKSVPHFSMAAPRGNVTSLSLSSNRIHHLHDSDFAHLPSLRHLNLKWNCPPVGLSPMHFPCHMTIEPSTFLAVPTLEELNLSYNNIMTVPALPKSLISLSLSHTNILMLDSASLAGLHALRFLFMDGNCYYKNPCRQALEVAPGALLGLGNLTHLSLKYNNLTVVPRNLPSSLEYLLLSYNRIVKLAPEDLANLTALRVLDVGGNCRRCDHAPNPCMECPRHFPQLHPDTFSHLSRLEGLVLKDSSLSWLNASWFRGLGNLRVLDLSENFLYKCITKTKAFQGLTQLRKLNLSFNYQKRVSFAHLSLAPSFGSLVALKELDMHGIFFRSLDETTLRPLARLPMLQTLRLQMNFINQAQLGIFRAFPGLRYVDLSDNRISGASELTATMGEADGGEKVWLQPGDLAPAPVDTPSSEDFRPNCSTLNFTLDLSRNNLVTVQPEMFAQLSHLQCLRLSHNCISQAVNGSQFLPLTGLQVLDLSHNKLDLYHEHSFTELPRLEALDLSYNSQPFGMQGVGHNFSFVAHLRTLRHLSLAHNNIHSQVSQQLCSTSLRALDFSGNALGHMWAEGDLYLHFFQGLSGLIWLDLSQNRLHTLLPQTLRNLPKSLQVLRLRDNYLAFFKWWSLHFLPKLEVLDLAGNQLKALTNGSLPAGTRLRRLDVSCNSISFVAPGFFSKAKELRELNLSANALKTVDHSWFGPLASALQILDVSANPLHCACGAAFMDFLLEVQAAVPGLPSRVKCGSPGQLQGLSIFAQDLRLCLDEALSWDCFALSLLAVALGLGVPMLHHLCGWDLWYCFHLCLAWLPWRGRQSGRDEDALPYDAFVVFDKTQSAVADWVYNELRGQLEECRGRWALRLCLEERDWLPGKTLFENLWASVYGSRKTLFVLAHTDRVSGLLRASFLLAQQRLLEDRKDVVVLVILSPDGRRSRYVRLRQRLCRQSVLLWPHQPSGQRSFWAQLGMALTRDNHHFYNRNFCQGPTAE
Protocol: (§1) TLR7/8/9 Inhibition Reporter Assays
(§2) […] (Invivogen) overexpressing human TLR7, TLR8 or TLR9 receptors were used for screening inhibitors of these receptors using an inducible SEAP (secreted embryonic alkaline phosphatase) reporter gene under the control of the IFN-β minimal promoter fused to five NF-κB and AP-1-binding sites. Briefly, cells are seeded into Greiner 384 well plates (15000 cells per well for TLR7, 20,000 for TLR8 and 25,000 for TLR9) and then treated with test compounds in DMSO to yield a final dose response concentration range of 0.05 nM-50 μM. After a 30 minute compound pre-treatment at room temperature, the cells are then stimulated with a TLR7 ligand (gardiquimod at a final concentration of 7.5 μM). TLR8 ligand (R848 at a final concentration of 15.9 μM) or TLR9 ligand (ODN2006 at a final concentration of 5 nM) to activate NF-κB and AP-1 which induce the production of SEAP. After a 22 hour incubation at 37° C., 5% CO2, SEAP levels are determined with the addition of HEK-Blue™ Detection reagent (Invivogen), a cell culture medium that allows for detection of SEAP, according to manufacturer's specifications. The percent inhibition is determined as the % reduction in the HEK-Blue signal present in wells treated with agonist plus DMSO alone compared to wells treated with a known inhibitor.

human TLR8 = molecular target: T2, human TLR8 (Homo sapiens, UniProt Q9NR97); test: TLR8 inhibition reporter assay (HEK-Blue SEAP); conditions: cells overexpressing human TLR8, SEAP reporter, stimulated with R848 15.9 μM, 22 hour incubation
T2 construct: host or cells: HEK-Blue cells
T2 sequence (Q9NR97 27-1041): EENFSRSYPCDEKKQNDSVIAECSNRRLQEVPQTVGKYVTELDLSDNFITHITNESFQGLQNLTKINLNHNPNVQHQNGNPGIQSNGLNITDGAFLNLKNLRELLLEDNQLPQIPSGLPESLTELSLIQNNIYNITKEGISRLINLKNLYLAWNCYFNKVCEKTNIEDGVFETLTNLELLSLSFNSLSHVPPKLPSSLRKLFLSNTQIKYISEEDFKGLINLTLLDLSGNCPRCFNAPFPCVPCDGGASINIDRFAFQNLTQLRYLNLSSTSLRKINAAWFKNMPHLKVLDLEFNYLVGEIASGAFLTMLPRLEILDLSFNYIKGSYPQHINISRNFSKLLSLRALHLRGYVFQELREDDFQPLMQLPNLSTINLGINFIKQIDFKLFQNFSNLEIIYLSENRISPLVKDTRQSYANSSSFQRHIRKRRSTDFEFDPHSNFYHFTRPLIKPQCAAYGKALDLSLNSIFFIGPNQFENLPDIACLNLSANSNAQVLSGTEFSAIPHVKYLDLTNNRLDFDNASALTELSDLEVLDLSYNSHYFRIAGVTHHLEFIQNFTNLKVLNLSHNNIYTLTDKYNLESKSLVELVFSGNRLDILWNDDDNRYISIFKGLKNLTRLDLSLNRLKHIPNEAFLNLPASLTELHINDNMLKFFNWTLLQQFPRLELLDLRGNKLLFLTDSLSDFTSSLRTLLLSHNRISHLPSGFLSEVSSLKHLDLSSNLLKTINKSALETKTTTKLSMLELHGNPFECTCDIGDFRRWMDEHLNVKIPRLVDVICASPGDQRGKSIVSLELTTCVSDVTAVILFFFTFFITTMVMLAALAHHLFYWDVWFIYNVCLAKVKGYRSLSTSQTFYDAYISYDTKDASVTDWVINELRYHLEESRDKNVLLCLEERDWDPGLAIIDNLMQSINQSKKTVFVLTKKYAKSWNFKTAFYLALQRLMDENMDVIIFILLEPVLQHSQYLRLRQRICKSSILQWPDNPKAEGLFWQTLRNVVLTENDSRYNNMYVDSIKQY
Protocol: as §1, §2

human TLR7 = molecular target: T3, human TLR7 (Homo sapiens, UniProt Q9NYK1); test: TLR7 inhibition reporter assay (HEK-Blue SEAP); conditions: cells overexpressing human TLR7, SEAP reporter, stimulated with gardiquimod 7.5 μM, 22 hour incubation
T3 construct: host or cells: HEK-Blue cells
T3 sequence (Q9NYK1 27-1049): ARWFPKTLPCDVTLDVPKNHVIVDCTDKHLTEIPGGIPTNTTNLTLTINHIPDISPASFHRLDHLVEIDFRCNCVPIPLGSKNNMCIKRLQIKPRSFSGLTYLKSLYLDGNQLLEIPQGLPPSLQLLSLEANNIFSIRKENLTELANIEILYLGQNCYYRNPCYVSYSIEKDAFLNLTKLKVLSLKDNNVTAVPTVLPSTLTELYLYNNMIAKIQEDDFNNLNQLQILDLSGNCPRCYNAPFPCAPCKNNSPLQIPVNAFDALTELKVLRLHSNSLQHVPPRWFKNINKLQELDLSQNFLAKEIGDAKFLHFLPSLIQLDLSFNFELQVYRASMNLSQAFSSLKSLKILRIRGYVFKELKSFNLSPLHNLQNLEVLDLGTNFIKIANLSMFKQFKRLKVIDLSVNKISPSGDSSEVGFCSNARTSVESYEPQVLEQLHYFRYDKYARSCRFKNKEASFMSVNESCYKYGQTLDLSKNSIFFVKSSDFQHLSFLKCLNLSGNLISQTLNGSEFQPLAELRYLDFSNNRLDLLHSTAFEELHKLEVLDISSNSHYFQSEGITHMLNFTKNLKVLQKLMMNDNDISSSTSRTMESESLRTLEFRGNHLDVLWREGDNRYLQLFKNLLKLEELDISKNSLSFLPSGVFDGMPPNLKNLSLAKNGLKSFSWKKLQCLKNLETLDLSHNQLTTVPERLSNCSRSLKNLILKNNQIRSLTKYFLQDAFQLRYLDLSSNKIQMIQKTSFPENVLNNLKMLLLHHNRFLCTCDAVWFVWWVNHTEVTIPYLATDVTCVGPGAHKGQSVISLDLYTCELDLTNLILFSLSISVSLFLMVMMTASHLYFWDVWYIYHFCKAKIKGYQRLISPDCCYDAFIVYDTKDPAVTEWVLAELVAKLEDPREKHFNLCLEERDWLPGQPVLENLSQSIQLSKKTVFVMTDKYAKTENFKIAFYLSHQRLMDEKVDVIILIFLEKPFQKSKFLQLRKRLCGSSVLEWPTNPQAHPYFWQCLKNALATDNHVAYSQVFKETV
Protocol: as §1, §2

IC50 (human TLR9) [nM] | IC50 (human TLR8) [nM] | IC50 (human TLR7) [nM] | Structure (SMILES)
100 to 1000 | < 100 | < 100 | CCc1c(-c2ccc(OC)c(OC)c2)[nH]c2cnc(C3CCN(C4CCN(C(C)C)CC4)CC3)nc12 [Example 26, 6-(3,4-dimethoxyphenyl)-7-ethyl-2-(1′-isopropyl-[1,4′-bipiperidin]-4-yl)-5H-pyrrolo[3,2-d]pyrimidine]
1000 to 50000 | < 100 | < 100 | Cc1c(-c2[nH]c3cnc(C4CCN(CC(C)(C)O)CC4)nc3c2C(C)C)cn2ncnc2c1C [Example 27, 1-(4-(6-(7,8-dimethyl-[1,2,4]triazolo[1,5-a]pyridin-6-yl)-7-isopropyl-5H-pyrrolo[3,2-d]pyrimidin-2-yl)piperidin-1-yl)-2-methylpropan-2-ol]
1000 to 50000 | < 100 | < 100 | Cc1c(-c2[nH]c3cnc(C4CCN(C(=O)CN(C)C)CC4)nc3c2C(C)C)cn2ncnc2c1C [Example 28, 1-(4-(6-(7,8-dimethyl-[1,2,4]triazolo[1,5-a]pyridin-6-yl)-7-isopropyl-5H-pyrrolo[3,2-d]pyrimidin-2-yl)piperidin-1-yl)-2-(dimethylamino)ethan-1-one]
1000 to 50000 | < 100 | < 100 | Cc1cc(-c2[nH]c3cnc(C4CCN(CC(=O)N(C)C)CC4)nc3c2C(C)C)cn2ncnc12 [Example 29, 2-(4-(7-isopropyl-6-(8-methyl-[1,2,4]triazolo[1,5-a]pyridin-6-yl)-5H-pyrrolo[3,2-d]pyrimidin-2-yl)piperidin-1-yl)-N,N-dimethylacetantide]
> 50000 | < 100 | < 100 | CNC(=O)CN1CCC(c2ncc3[nH]c(-c4cc(C)c5ncnn5c4)c(C(C)C)c3n2)CC1 [Example 30, 2-(4-(7-isopropyl-6-(8-methyl-[1,2,4]triazolo[1,5-a]pyridin-6-yl)-5H-pyrrolo[3,2-d]pyrimidin-2-yl)piperidin-1-yl)-N-tnethylacetamide]
1000 to 50000 | < 100 | < 100 | COc1cc(-c2[nH]c3cnc(C4CCN(CC(=O)N(C)C)CC4)nc3c2C(C)C)cn2ncnc12 [Example 31, 2-(4-(7-isopropyl-6-(8-methoxy-[1,2,4]triazolo[1,5-a]pyridin-6-yl)-5H-pyrrolo[3,2-d]pyrimidin-2-yl)piperidin-1-yl)-N,N-dimethylacetamide]
1000 to 50000 | < 100 | < 100 | Cc1cc(-c2[nH]c3cnc(C4CCN(CC(=O)N(C)C)CC4)nc3c2C(C)C)cn(C)c1=O [Example 32, 2-(4-(6-(1,5-dimethyl-6-oxo-1,6-dihydropyridin-3-yl)-7-isopropyl-5H-pyrrolo[3,2-d]pyrimidin-2-yl)piperidin-1-yl)-N,N-dimethylacetainide]
1000 to 50000 | 100 to 1000 | < 100 | Cc1cc(-c2[nH]c3cnc(C4CCN(C(=O)CN(C)C)CC4)nc3c2C(C)C)cn(C)c1=O [Example 33, 5-(2-(1-(dimethylglycyl)piperidin-4-yl)-7-isopropyl-5H-pyrrolo[3,2-d]pyrimidin-6-yl)-1,3-dimethylpyridin-2(1H)-one]
1000 to 50000 | < 100 | < 100 | Cc1cc(-c2[nH]c3cnc(C4CCN(C)CC4)nc3c2C(C)C)cn(C)c1=O [Example 34, 5-(7-isopropyl-2-(1-methylpiperidin-4-yl)-5H-pyrrolo[3,2-d]pyrimidin-6-yl)-1,3-dimethylpyridin-2(1H)-one]
> 50000 | < 100 | < 100 | CNC(=O)CN1CCC(c2ncc3[nH]c(-c4cc(OC)c5ncnn5c4)c(C(C)C)c3n2)CC1 [Example 35, 2-(4-(7-isopropyl-6-(8-methoxy-[1,2,4]triazolo[1,5-a]pyridin-6-yl)-5H-pyrrolo[3,2-d]pyritnidin-2-yl)piperidin-1-yl)-N-methylacetamide]
1000 to 50000 | 100 to 1000 | 1000 to 50000 | CCc1c(-c2ccc(OC)c(OC)c2)[nH]c2cnc(-c3nnc(C[C@H]4CCCCN4)o3)nc12 [Example 36, (R)-2-(6-(3,4-dimethoxyphenyl)-7-ethyl-5H-pyrrolo[3,2-d]pyrhnidin-2-yl)-5-(piperidin-2-ylmethyl)-1,3,4-oxadiazole]
